# Test results published in the supplement of paper PMC10307832.
# Compound: CC(C)C[C@H](NC(=O)[C@H](CCc1ccccc1)NC(=O)CN1CCOCC1)C(=O)N[C@@H](Cc1ccccc1)C(=O)N[C@@H](CC(C)C)C(=O)[C@@]1(C)CO1 [Carfilzomib] + O=C(c1cc(Cc2n[nH]c(=O)c3ccccc23)ccc1F)N1CCN(C(=O)C2CC2)CC1 [Olaparib] (partner 8 µM)
# Experiment: relative viability (nuclei count vs DMSO), 5 days (fraction); higher = more cells survive
# Settings: first compound 0.03162 µM
# Summary of the method: (§1)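 Lung cancer cell lines in 1536-well plates got either a single drug or a fixed anchor-drug dose together with five library-drug doses (not always all listed) in √10 steps, by pin tool, on the day after seeding. Nuclei were counted after 5 days, and relative viability is the treated-to-vehicle ratio of nuclei counts. Values are medians of duplicate plates.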
row,Cell Line,relative viability
1,NCI-H522,0.489
2,NCI-H1395,0.356
3,NCI-H1648,0.922
4,NCI-H1650,0.111
5,NCI-H1944,0.374
6,NCI-H2170,0.218
7,NCI-H2342,0.497
8,SK-MES-1,0.276
9,SW 900,0.174

# Same assay, conditions: first compound 0.1 µM
row,Cell Line,relative viability
1,201T,0.546
2,A549,0.0273
3,A-427,0.147
4,ABC-1,0.26
5,BEN,0.376
6,CAL-12T,0.145
7,COR-L23,0.0712
8,COR-L 105,0.301
9,Calu-6,0.0789
10,ChaGo-K-1,0.142
11,EBC-1,0.082
12,EKVX,0.231
13,EMC-BAC-2,0.249
14,EPLC-272H,0.0607
15,H3255,0.235
16,HARA,0.0917
17,HCC-15,0.166

row,Cell Line,relative viability
1,HCC-44,0.637
2,HCC-78,0.233
3,HCC-366,0.0358
4,HCC-827,0.108
5,HOP-62,0.0477
6,IA-LM,0.0425
7,LK-2,0.149
8,NCI-H358,0.0776
9,NCI-H522,0.314
10,NCI-H1395,0.303
11,NCI-H1648,0.189
12,NCI-H1650,0.137
13,NCI-H1944,0.187
14,NCI-H2170,0.117
15,NCI-H2342,0.317
16,SK-MES-1,0.146
17,SW 900,0.168

# Compound: C[C@@H](Oc1cc(-c2cnn(C3CCNCC3)c2)cnc1N)c1c(Cl)ccc(F)c1Cl [Crizotinib] + CC(C)C[C@H](NC(=O)[C@H](Cc1ccccc1)NC(=O)c1cnccn1)B(O)O [Bortezomib] (partner 0.002 µM)
# Experiment: as above
# Settings: first compound 0.01 µM
# Summary of the method: as §1
row,Cell Line,relative viability
1,201T,1.07
2,A-427,0.91
3,ABC-1,0.277
4,BEN,0.862
5,CAL-12T,0.991
6,COR-L23,0.927
7,COR-L 105,0.825
8,Calu-6,0.936
9,ChaGo-K-1,0.947
10,EBC-1,0.599
11,EKVX,1.06
12,EMC-BAC-2,1.04
13,EPLC-272H,0.87
14,H3255,0.736
15,HARA,1.02
16,HCC-15,0.916
17,HCC-44,0.903
18,HCC-78,0.437
19,HCC-366,1.01
20,HCC-827,0.887
21,HOP-62,0.822
22,IA-LM,0.848
23,NCI-H1563,0.744
24,NCI-H1650,0.188

# Same assay, conditions: first compound 0.03162 µM
row,Cell Line,relative viability
1,201T,1.09
2,A-427,1.03
3,ABC-1,0.368
4,BEN,0.788
5,CAL-12T,1.02
6,COR-L23,0.9
7,COR-L 105,0.778
8,Calu-6,0.988
9,EBC-1,0.564
10,EKVX,1.05
11,EMC-BAC-2,1.08
12,EPLC-272H,0.865
13,H3255,0.925
14,HARA,1.08
15,HCC-44,0.751
16,HCC-78,0.466
17,HCC-366,1.04
18,HCC-827,1.06
19,HOP-62,0.788
20,IA-LM,0.754
21,NCI-H1563,0.859
22,NCI-H1650,0.173

# Same assay, conditions: first compound 0.1 µM
row,Cell Line,relative viability
1,A-427,0.953
2,ABC-1,0.292
3,CAL-12T,1.13
4,COR-L23,0.915
5,COR-L 105,0.787
6,Calu-6,1.03
7,ChaGo-K-1,1.2
8,EBC-1,0.28
9,EKVX,0.959
10,EMC-BAC-2,0.997
11,EPLC-272H,1.03
12,H3255,0.814
13,HARA,1.11
14,HCC-15,1.06
15,HCC-44,0.936
16,HCC-78,0.472
17,HCC-366,1.02
18,HCC-827,1.14
19,HOP-62,1.03
20,IA-LM,0.735
21,NCI-H1563,0.857
22,NCI-H1650,0.205

# Same assay, conditions: first compound 0.3162 µM
row,Cell Line,relative viability
1,201T,1.14
2,ABC-1,0.279
3,BEN,0.815
4,COR-L23,0.989
5,COR-L 105,0.699
6,Calu-6,0.892
7,EBC-1,0.231
8,EKVX,0.934
9,EMC-BAC-2,1
10,EPLC-272H,0.912
11,H3255,0.681
12,HARA,1.13
13,HCC-15,0.826
14,HCC-44,0.773
15,HCC-78,0.399
16,HCC-827,0.999
17,HOP-62,0.523
18,IA-LM,0.744
19,NCI-H1563,0.779
20,NCI-H1650,0.159

# Same assay, conditions: first compound 1 µM
row,Cell Line,relative viability
1,201T,1.2
2,A-427,0.999
3,ABC-1,0.299
4,BEN,0.78
5,CAL-12T,0.907
6,COR-L23,0.96
7,COR-L 105,0.941
8,Calu-6,0.958
9,ChaGo-K-1,0.96
10,EBC-1,0.259
11,EKVX,1.1
12,EMC-BAC-2,1.03
13,H3255,0.659
14,HARA,1.12
15,HCC-15,0.891
16,HCC-44,0.952
17,HCC-78,0.447
18,HCC-366,1.15
19,HCC-827,0.931
20,HOP-62,0.584
21,IA-LM,0.704
22,NCI-H1563,0.832
23,NCI-H1650,0.2

# Compound: O=C(c1cc(Cc2n[nH]c(=O)c3ccccc23)ccc1F)N1CCN(C(=O)C2CC2)CC1 [Olaparib] + C[C@]1(O)C[C@@H](c2nc(-c3ccc4ccc(-c5ccccc5)nc4c3)c3c(N)nccn32)C1 [Linsitinib] (partner 1 µM)
# Experiment: as above
# Settings: first compound 0.08 µM
# Summary of the method: as §1
row,Cell Line,relative viability
1,201T,1.04
2,A549,0.761
3,A-427,1.12
4,ABC-1,1.1
5,BEN,0.89
6,CAL-12T,1.05
7,COR-L23,1.09
8,COR-L 105,1.03
9,Calu-6,1.06
10,EBC-1,1.07
11,EKVX,1.38
12,EMC-BAC-2,0.945
13,EPLC-272H,1.25
14,H3255,1.04
15,HARA,1.07
16,HCC-15,0.927
17,HCC-44,0.654
18,HCC-78,0.732
19,HCC-366,0.67
20,HCC-827,0.899
21,HOP-62,1.11
22,IA-LM,0.891
23,LK-2,0.588
24,NCI-H358,0.842
25,NCI-H1395,1.14
26,NCI-H1563,1.22
27,NCI-H1944,1.22
28,SK-MES-1,1.14

# Same assay, conditions: first compound 0.253 µM
row,Cell Line,relative viability
1,201T,1.01
2,A549,0.567
3,A-427,1.03
4,ABC-1,0.918
5,BEN,0.749
6,CAL-12T,0.751
7,COR-L23,0.852
8,COR-L 105,0.804
9,Calu-6,0.866
10,EBC-1,0.824
11,EKVX,0.91
12,EMC-BAC-2,0.792
13,EPLC-272H,1.11
14,H3255,0.912
15,HARA,0.829
16,HCC-15,0.828
17,HCC-44,0.562
18,HCC-78,0.456
19,HCC-366,0.479
20,HCC-827,0.886
21,HOP-62,1.16
22,IA-LM,0.391
23,LK-2,0.691
24,NCI-H358,0.608
25,NCI-H1395,0.896
26,NCI-H1563,1.25
27,NCI-H1944,1.05
28,SK-MES-1,0.996

# Same assay, conditions: first compound 2.53 µM
row,Cell Line,relative viability
1,201T,1.04
2,A549,0.588
3,A-427,1.03
4,ABC-1,0.644
5,BEN,1.05
6,CAL-12T,0.825
7,COR-L23,0.716
8,COR-L 105,0.706
9,Calu-6,0.824
10,EBC-1,0.848
11,EKVX,1.01
12,EMC-BAC-2,0.85
13,EPLC-272H,1.21
14,H3255,0.932
15,HARA,1.04
16,HCC-15,0.836
17,HCC-44,0.713
18,HCC-78,0.533
19,HCC-366,0.447
20,HCC-827,0.922
21,HOP-62,0.968
22,IA-LM,0.672
23,LK-2,0.549
24,NCI-H358,0.668
25,NCI-H1395,0.67
26,NCI-H1563,1.2
27,NCI-H1944,1.12
28,SK-MES-1,1.05

# Same assay, conditions: first compound 8 µM
row,Cell Line,relative viability
1,201T,1.01
2,A549,0.436
3,A-427,0.851
4,ABC-1,0.556
5,BEN,0.982
6,CAL-12T,0.666
7,COR-L23,0.432
8,COR-L 105,0.591
9,Calu-6,0.717
10,EBC-1,0.751
11,EKVX,1.06
12,EMC-BAC-2,0.621
13,EPLC-272H,1.03
14,H3255,0.825
15,HARA,0.792
16,HCC-15,0.768
17,HCC-44,0.682
18,HCC-78,0.473
19,HCC-366,0.303
20,HCC-827,0.774
21,HOP-62,0.47
22,IA-LM,0.443
23,LK-2,0.485
24,NCI-H358,0.592
25,NCI-H1395,0.734
26,NCI-H1563,1.2
27,NCI-H1944,0.876
28,SK-MES-1,0.796
